These results are taken from patent US20230127499A1, “PEPTIDES AND ADJUVANTS FOR AU[…] […] FOR CORONAVIRUS” (FIGENE, LLC, priority 2020, published 2023).

Read-outs that look alike come from different tables or passages of the source.

Experiment [1] concerns human peripheral blood mononuclear cell (PBMC) derived monocytes. In words: Endotoxin-induced TNF production in monocyte/fibroblast cultures (ELISA). The format is cell-based. As to conditions: LPS 1 ug/ml, FIG. 5. The protocol:
Hydroxychloroquine (Sigma Aldrich) was diluted at the concentrations indicated. Levels of tumor necrosis factor (TNF) were assessed by ELISA.
(In general: In an ELISA, binding on a coated surface is turned into a signal by an enzyme label.)

Experiment [2] deals with healthy rats. As to conditions: 500 ng intra-tracheally; within 5 hours; versus saline-treated control rats; cited from earlier work.
The test system of experiment [3] is neutrophils. The note with it: cited from earlier work; for neutrophil apoptosis: 100 ng/mL.

On to `CCN(CCO)CCCC(C)Nc1ccnc2cc(Cl)ccc12` (stereo not shown) [hydroxychloroquine], for which the “production of TNF-alpha from macrophages” value in experiment [1] is reported as “suppressed production of TNF-alpha”.
For TNF-alpha, in experiment [2], the lung lavage neutrophils entry is “substantially higher”, the lung leak result was “substantially higher” and the “lung myeloperoxidase (MPO) activity” value is reported as “substantially higher”. Moreover, the neutrophil apoptosis entry in experiment [3] (at 4-8 h) is “increased”. Also, in experiment [3] (at 24 h), the neutrophil apoptosis result is recorded as “markedly suppressed”. Moreover, in experiment [3] (PMN cultured for 24 h), the “levels of IL-8” value is given as “markedly increased”.
